Earlier results in patent US20110082867A1, “SYSTEM, METHOD, AND COMPUTER PROGRAM PRODUCT FOR ANALYZING DRUG INTERACTIONS” (priority 2009, published 2011).

Tests used:
CYP 2C9 = CYP 2C9 (Homo sapiens, UniProt P11712); details: Gene CYP 2C9; involvement strength and type
CYP 3A4 = CYP 3A4 (Homo sapiens, UniProt P08684); details: Gene CYP 3A4; involvement strength and type
CYP 2E1 = CYP 2E1 (Homo sapiens, UniProt P05181); details: Gene CYP 2E1; involvement strength and type
CYP 2A6 = molecular target: T1, CYP 2A6 (Homo sapiens, UniProt P11509); details: Gene CYP 2A6; involvement strength and type
T1 sequence (P11509 1-494): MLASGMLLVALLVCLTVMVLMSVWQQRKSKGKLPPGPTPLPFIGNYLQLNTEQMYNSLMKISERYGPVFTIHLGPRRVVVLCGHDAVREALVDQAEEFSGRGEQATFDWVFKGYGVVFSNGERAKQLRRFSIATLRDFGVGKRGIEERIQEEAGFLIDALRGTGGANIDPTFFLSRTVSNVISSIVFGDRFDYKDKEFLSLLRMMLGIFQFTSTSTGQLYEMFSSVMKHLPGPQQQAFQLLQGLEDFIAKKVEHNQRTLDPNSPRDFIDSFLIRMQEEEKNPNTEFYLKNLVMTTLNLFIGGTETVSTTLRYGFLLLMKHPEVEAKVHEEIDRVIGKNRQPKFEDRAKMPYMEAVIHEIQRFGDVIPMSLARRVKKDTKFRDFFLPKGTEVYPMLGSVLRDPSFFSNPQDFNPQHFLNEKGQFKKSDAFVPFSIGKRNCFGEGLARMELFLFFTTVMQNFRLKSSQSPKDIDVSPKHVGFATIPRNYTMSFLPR

CYP 1A2 = molecular target: T2, CYP 1A2 (Homo sapiens, UniProt P05177); details: Gene CYP 1A2; involvement strength and type
T2 sequence (P05177 1-516): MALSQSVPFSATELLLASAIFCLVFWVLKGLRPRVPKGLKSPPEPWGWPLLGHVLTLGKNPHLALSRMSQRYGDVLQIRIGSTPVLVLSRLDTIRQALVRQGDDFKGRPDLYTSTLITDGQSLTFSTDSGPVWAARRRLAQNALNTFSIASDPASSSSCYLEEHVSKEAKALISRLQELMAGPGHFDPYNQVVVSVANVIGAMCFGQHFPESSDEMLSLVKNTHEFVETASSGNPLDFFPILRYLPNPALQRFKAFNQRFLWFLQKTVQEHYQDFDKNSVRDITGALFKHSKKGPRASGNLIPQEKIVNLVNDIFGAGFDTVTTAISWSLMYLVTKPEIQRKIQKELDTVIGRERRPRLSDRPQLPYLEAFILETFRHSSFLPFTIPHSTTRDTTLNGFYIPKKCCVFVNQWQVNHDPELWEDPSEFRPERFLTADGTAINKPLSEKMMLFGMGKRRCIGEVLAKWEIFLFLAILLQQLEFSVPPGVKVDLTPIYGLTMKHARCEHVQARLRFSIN

CYP 2D6 = CYP 2D6 (Homo sapiens, UniProt P10635); details: Gene CYP 2D6; involvement strength and type
Chain of CYP 2D6 (P10635 whole entry): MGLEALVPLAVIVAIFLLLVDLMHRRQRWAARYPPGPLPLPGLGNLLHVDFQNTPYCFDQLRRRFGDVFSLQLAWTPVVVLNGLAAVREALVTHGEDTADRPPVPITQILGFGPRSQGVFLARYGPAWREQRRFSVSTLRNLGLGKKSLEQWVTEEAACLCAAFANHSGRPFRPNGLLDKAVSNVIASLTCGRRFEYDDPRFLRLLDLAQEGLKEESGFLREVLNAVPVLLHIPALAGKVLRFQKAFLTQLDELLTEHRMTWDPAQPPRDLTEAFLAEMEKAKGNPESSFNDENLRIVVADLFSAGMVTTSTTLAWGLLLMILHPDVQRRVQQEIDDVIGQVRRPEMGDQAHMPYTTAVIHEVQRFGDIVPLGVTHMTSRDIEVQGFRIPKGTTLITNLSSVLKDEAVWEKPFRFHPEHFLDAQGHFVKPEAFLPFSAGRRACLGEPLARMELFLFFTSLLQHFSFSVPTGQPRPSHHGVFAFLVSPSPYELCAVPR

Chain of CYP 2C9 (P11712 whole entry): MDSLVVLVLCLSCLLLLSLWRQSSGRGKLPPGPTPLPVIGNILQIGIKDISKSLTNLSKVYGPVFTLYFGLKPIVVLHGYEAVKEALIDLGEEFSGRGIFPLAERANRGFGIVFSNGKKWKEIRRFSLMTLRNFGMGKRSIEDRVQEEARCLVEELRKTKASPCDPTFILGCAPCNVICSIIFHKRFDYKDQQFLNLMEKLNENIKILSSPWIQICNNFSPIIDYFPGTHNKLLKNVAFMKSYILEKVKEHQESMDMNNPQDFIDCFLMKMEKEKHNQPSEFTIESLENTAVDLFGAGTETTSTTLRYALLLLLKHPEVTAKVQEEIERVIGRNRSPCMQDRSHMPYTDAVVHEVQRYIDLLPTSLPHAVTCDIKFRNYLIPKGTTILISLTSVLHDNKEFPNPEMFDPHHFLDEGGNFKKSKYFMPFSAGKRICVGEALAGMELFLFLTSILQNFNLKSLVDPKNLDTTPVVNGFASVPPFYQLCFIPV
Chain of CYP 3A4 (P08684 whole entry): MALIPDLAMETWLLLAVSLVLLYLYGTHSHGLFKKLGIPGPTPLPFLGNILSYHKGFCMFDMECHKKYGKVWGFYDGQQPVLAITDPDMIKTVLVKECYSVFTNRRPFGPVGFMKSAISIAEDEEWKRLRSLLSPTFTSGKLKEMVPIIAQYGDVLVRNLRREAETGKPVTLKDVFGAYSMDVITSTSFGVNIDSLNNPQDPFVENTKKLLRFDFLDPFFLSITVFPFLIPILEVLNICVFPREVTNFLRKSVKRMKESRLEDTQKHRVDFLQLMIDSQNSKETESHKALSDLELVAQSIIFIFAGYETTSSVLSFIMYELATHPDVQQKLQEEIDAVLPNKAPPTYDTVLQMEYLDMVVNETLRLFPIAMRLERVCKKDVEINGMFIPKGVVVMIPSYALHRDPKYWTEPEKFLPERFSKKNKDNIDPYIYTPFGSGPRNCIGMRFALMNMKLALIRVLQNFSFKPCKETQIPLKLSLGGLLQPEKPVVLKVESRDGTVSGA
Chain of CYP 2E1 (P05181 whole entry): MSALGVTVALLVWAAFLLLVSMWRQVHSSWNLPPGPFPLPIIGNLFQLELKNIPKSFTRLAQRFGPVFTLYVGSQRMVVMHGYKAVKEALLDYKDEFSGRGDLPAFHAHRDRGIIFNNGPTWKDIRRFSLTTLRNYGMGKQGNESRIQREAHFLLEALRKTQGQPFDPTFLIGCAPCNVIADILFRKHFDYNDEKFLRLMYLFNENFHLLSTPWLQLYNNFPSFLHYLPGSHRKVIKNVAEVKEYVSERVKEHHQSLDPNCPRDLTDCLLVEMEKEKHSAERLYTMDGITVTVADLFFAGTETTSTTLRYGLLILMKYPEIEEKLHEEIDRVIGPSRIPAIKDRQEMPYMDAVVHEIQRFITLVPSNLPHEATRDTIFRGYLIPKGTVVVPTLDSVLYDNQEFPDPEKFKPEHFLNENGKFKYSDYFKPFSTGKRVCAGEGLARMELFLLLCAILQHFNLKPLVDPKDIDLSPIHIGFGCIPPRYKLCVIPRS

SMILES	Drug Interaction (CYP 2C9)	Drug Interaction (CYP 3A4)	Drug Interaction (CYP 2E1)	Drug Interaction (CYP 2A6)	Drug Interaction (CYP 1A2)	Drug Interaction (CYP 2D6)
CC(=O)CC(c1ccccc1)c1c(O)c2ccccc2oc1=O (stereo not shown) [Warfarin]	Major Substrate	–	–	–	–	–
CC(=O)Nc1ccc(O)cc1 [Acetaminophen]	–	Minor Substrate	Major Substrate	Minor Substrate	Minor Substrate	Minor Substrate
COc1ccc2c3c1O[C@H]1[C@@H](O)C=C[C@H]4[C@@H](C2)N(C)CC[C@@]341 [Codeine]	–	–	–	–	–	Major Substrate
